What was measured:
[1] = molecular target: kainate site (non-NMDA receptor); test: kainate site binding (London and Coyle); settings: Table 1
AMPA receptors = test: AMPA receptor binding (Honore et al.); settings: Table 1
[2] = molecular target: T1, glycine site of the NMDA receptor (Rattus norvegicus, UniProt P35439); test: glycine site of NMDA receptor binding (Jones et al.); settings: Table 1
T1 construct: from tissue

mice = test: maximal electroshock time course in mice, with and without probenecid pretreatment; format: in vivo
Method: FIG. 1 plots maximal electroshock time course with Compound 1 of the invention, with and without probenecid pretreatment in mice.
The graph is the percent of mice protected versus the time in minutes. The solid circle (.circle-solid.) is the compound from Example 1. In a separate experiment the solid square (.box-solid.) the compound from Example 1 (10 mg/kg, IV) was given to mice (n=5) pretreated with probenecid 30 minutes before the compound.

IC50 KA [1]	IC50 (AMPA receptors)	IC50 [2]	Compound	effect of probenecid pretreatment on protection against maximal electroshock (mice; 10 mg/kg IV, n=5 mice, probenecid 30 minutes before the compound)	protection against maximal electroshock (in words) (mice; 30 mg/kg IV, 5 mice, percent of mice protected versus time plotted in FIG. 1 only)
4900 nM	4500 nM	600 nM	Cc1c([N+](=O)[O-])cc2[nH]c(=O)c(=O)n3c2c1CN(C)C(=O)C3c1ccccc1 (centres unmarked) [Example 2, 6,8-Dimethyl-5-nitro-10-phenyl-7,8-dihdro-3H-3,8,10a-triaza-cyclohepta(de)morphthalene-1,2,9-trione]		
1550 nM	850 nM	200 nM	Cc1c([N+](=O)[O-])cc2[nH]c(=O)c(=O)n3c2c1CN(C)C(=O)C3 [Example 1, 6-8-Dimethyl-5-nitro-7,8-dihydro-3H-d,8,10a-triaza-cyclo-hepta[de]naphthalene-1,2,9-trione]	positively modulated by ion transporter substrates such as probenecid	indicative of the in vivo potency

— patent publication US6063774A, “Tricyclic quinoxaline derivatives as neuroprotective agents” (Warner-Lambert Company, priority 1998, dated 2000)
